Assay results from patent US20100016371A1, “Indole Compounds” (Glaxo Group Limited, priority 2006, published 2010).

Key:
human EP1 receptor = target: T1, human EP1 receptor (Homo sapiens, UniProt P34995); assay: human EP1 calcium mobilisation assay (FLIPR, CHO-K1 cells); assay type: cell-based; conditions: antagonism of PGE2-induced calcium mobilisation, CHO-K1 cells expressing EP1; averages of a number of experiments; read-out: functional pKi (converted)
T1 construct: expressed in transfected cells; host or cells: CHO-K1 cells, pCIN vector
T1 sequence (P34995 1-402): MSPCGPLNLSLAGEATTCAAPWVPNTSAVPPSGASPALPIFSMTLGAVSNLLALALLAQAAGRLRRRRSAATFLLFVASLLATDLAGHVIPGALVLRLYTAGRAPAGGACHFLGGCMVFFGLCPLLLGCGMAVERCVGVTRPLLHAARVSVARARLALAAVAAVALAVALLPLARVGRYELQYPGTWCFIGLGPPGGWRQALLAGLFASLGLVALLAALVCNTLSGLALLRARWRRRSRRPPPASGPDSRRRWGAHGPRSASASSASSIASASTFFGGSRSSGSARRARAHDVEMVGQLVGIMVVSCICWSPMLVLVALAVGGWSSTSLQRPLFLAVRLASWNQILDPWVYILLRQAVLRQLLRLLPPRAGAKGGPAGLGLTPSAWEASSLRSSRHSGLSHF
Description: (§1) Biological Activity at EP1 and EP3 Receptors
(§2) Briefly, the antagonist properties of compounds are assessed by their ability to inhibit the mobilisation of intracellular calcium ([Ca^2+]i) in response to activation of EP1 or EP3 receptors by the natural agonist hormone prostaglandin E2 (PGE2). Increasing concentrations of antagonist reduce the amount of calcium that a given concentration of PGE2 can mobilise. The net effect is to displace the PGE2 concentration-effect curve to higher concentrations of PGE2. The amount of calcium produced is assessed using a calcium-sensitive fluorescent dye such as Fluo-4, AM and a suitable instrument such as a Fluorimetric Imaging Plate Reader (FLIPR). Increasing amounts of [Ca^2+]i produced by receptor activation increase the amount of fluorescence produced by the dye and give rise to an increasing signal. The signal may be detected using the FLIPR instrument and the data generated may be analysed with suitable curve-fitting software.
The human EP1 or EP3 calcium mobilisation assay (hereafter referred to as ‘the calcium assay’) utilises Chinese hamster ovary-K1 (CHO-K1) cells into which a stable (pCIN; BioTechniques 20(1996): 102-110) vector containing either EP1 or EP3 cDNA has previously been transfected. Cells are cultured in suitable flasks containing culture medium such as DMEM:F-12 supplemented with 10% v/v foetal calf serum, 2 mM L-glutamine, 0.25 mg/ml geneticin, 100 μM flurbiprofen and 10 μg/ml puromycin.
For assay, cells are harvested using a proprietary reagent that dislodges cells such as Versene. Cells are re-suspended in a suitable quantity of fresh culture media for introduction into a 384-well plate. Following incubation for 24 hours at 37° C. the culture media is replaced with a medium containing Fluo-4 and the detergent pluronic acid, and a further incubation takes place. Concentrations of compounds are then added to the plate in order to construct concentration-effect curves. This may be performed on the FLIPR in order to assess the agonist properties of the compounds. Concentrations of PGE2 are then added to the plate in order to assess the antagonist properties of the compounds.
The data so generated may be analysed by means of a computerised curve-fitting routine. The concentration of compound that elicits a half-maximal inhibition of the calcium mobilisation induced by PGE2 (pIC50) may then be estimated.

[1] = target: T2, human prostanoid EP1 receptor (Homo sapiens, UniProt P34995); assay: Binding assay for the human prostanoid EP1 receptor (competition with [3H]-PGE2); conditions: [3H]-PGE2 competition, CHO-K1 cell membranes; averages of a number of experiments
T2 construct: expressed in transfected cells; host or cells: CHO-K1 cells, membrane fraction
T2 sequence (P34995 1-402): T1 sequence (P34995 1-402)
Description: Binding Assay for the Human Prostanoid EP1 Receptor
Competition assay using [^3H]-PGE2
Compound potencies are determined using a radioligand binding assay. In this assay compound potencies are determined from their ability to compete with tritiated prostaglandin E2 ([^3H]-PGE2) for binding to the human EP1 receptor.
This assay utilises Chinese hamster ovary-K1 (CHO-K1) cells into which a stable vector containing the EP1 cDNA has previously been transfected. Cells are cultured in suitable flasks containing culture medium such as DMEM:F-12 supplemented with 10% v/v foetal calf serum, 2 mM L-glutamine, 0.25 mg/ml geneticin, […] puromycin and 10 μM indomethacin.
Cells are detached from the culture flasks by incubation in calcium and magnesium free phosphate buffered saline containing 1 mM disodium ethylenediaminetetraacetic acid (Na2EDTA) and 10 μM indomethacin for 5 min. The cells are isolated by centrifugation at 250×g for 5 mins and suspended in an ice cold buffer such as 50 mM Tris, 1 mM Na2EDTA, 140 mM NaCl, 10 μM indomethacin (pH 7.4). The cells are homogenised using a Polytron tissue disrupter (2×10s burst at full setting), centrifuged at 48,000×g for 20 mins and the pellet containing the membrane fraction is washed (optional) three times by suspension and centrifugation at 48,000×g for 20 mins. The final membrane pellet is suspended in an assay buffer such as 10 mM 2-[N-morpholino]ethanesulphonic acid, 1 mM Na2EDTA,10 mM MgCl2 (pH 6). Aliquots are frozen at −80° C. until required.
For the binding assay the cell membranes, competing compounds and [^3H]-PGE2 (3 nM final assay concentrations are incubated in a final volume of 100 μl for 30 min at 30° C. All reagents are prepared in assay buffer. Reactions are terminated by rapid vacuum filtration over GF/B filters using a Brandell cell harvester. The filters are washed with ice cold assay buffer, dried and the radioactivity retained on the filters is measured by liquid scintillation counting in Packard TopCount scintillation counter.
The data are analysed using non linear curve fitting techniques to determine the concentration of compound producing 50% inhibition of specific binding (IC50).

human EP3 receptor = target: T3, human EP3 receptor (Homo sapiens, UniProt P43115); assay: human EP3 calcium mobilisation assay (FLIPR, CHO-K1 cells); assay type: cell-based; conditions: antagonism of PGE2-induced calcium mobilisation, CHO-K1 cells expressing EP3; averages of a number of experiments; read-out: functional pKi (converted)
T3 construct: expressed in transfected cells; host or cells: CHO-K1 cells, pCIN vector
T3 sequence (P43115 1-390): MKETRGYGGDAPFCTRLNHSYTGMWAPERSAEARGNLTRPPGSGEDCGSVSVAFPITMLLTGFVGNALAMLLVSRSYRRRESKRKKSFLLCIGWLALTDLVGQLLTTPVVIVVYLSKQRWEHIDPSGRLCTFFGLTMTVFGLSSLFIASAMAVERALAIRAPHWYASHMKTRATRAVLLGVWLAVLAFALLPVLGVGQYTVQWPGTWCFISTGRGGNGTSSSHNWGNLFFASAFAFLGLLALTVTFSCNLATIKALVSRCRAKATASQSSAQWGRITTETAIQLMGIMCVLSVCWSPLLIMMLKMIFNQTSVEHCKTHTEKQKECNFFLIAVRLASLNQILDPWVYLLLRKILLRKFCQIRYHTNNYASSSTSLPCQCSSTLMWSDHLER
Description: as §1
as §2, with “software. […]” for “software.”
For assay, cells are harvested using a proprietary reagent that dislodges cells such as Versene. Cells are re-suspended in a suitable quantity of fresh culture media for introduction into a 384-well plate. […]
The data so generated may be analysed by means of a computerised curve-fitting routine. […]

SMILES	Ki (human EP1 receptor)	IC50 [1]	Ki (human EP3 receptor)
CC(C)Cc1cn(-c2nc(C(=O)O)cs2)c2cc(Cl)ccc12 [Example 17, 2-[6-Chloro-3-(2-methylpropyl)-1H-indol-1-yl]-1,3-thiazole-4-carboxylic acid]	≤ 0.1 µM	≤ 0.1 µM	
Cc1ccc2c(CC(C)C)cn(-c3nc(C(=O)O)cs3)c2c1 [Example 24]	≤ 0.1 µM	≤ 0.1 µM	
CC(C)Cc1cn(-c2ncc(C(=O)O)s2)c2cc(Cl)ccc12 [Example 21, 2-[6-Chloro-3-(2-methylpropyl)-1H-indol-1-yl]-1,3-thiazole-5-carboxylic acid]	≤ 0.1 µM	≤ 0.1 µM	
CC(C)c1cn(-c2nc(C(=O)O)cs2)c2cc(Cl)ccc12 [Example 3, 2-[6-Chloro-3-(1-methylethyl)-1H-indol-1-yl]-1,3-thiazole-4-carboxylic acid]	≤ 0.1 µM	≤ 0.1 µM	
CC(C)Cc1cn(-c2nc(C(=O)O)cs2)c2cc(C(F)(F)F)ccc12 [Example 13, 2-[3-(2-Methylpropyl)-6-(trifluoromethyl)-1H-indol-1-yl]-1,3-thiazole-4-carboxylic acid]	≤ 0.1 µM	≤ 0.1 µM	
CC(C)Cc1cn(Cc2nc(C(=O)O)cs2)c2cc(Cl)ccc12 [Example 6, 2-{[6-Chloro-3-(2-methylpropyl)-1H-indol-1-yl]methyl}-1,3-thiazole-4-carboxylic acid]	≤ 0.1 µM	≤ 0.1 µM	
CCCc1cn(-c2nc(C(=O)O)cs2)c2cc(Cl)ccc12 [Example 1, 2-(6-Chloro-3-propyl-1H-indol-1-yl)-1,3-thiazole-4-carboxylic acid]	≤ 0.1 µM	≤ 0.1 µM	
CC(C)Cc1cn(-c2nc(CC(=O)O)cs2)c2cc(Cl)ccc12 [Example 15, {2-[6-Chloro-3-(2-methylpropyl)-1H-indol-1-yl]-1,3-thiazol-4-yl}acetic acid]	≤ 0.1 µM		
CC(C)Cc1cn(-c2nc(C(=O)NS(=O)(=O)c3ccccc3)cs2)c2cc(Cl)ccc12 [Example 23, 2-[6-Chloro-3-(2-methylpropyl)-1H-indol-1-yl]-N-(phenylsulfonyl)-1,3-thiazole-4-carboxamide]	≤ 0.1 µM	≤ 0.1 µM	
CC(C)(C)CCc1cn(-c2nc(C(=O)O)cs2)c2cc(Cl)ccc12 [Example 2, 2-[6-Chloro-3-(3,3-dimethylbutyl)-1H-indol-1-yl]-1,3-thiazole-4-carboxylic acid]	≤ 0.1 µM	≤ 0.1 µM	
CC(C)Cc1nn(-c2nc(C(=O)O)cs2)c2cc(Cl)ccc12 [Example 11, 2-[6-Chloro-3-(2-methylpropyl)-1H-indazol-1-yl]-1,3-thiazole-4-carboxylic acid]	≤ 0.1 µM	≤ 0.1 µM	
O=C(O)c1csc(-n2cc(Cc3ccccc3)c3ccc(Cl)cc32)n1 [Example 8, 2-[6-Chloro-3-(phenylmethyl)-1H-indol-1-yl]-1,3-thiazole-4-carboxylic acid]	≤ 0.1 µM		

More lines, now with the values ahead:

Ki (human EP1 receptor)	IC50 [1]	Ki (human EP3 receptor)	SMILES
≤ 0.1 µM	≤ 0.1 µM		CC(C)(C)Cc1cn(-c2nc(C(=O)O)cs2)c2cc(Cl)ccc12 [Example 12, 2-[6-Chloro-3-(2,2-dimethylpropyl)-1H-indol-1-yl]-1,3-thiazole-4-carboxylic acid]
≤ 0.1 µM	≤ 0.1 µM		CC(C)Cc1cn(-c2nc(C(=O)O)cs2)c2cc(Br)ccc12 [Example 4, 2-[6-Bromo-3-(2-methylpropyl)-1H-indol-1-yl]-1,3-thiazole-4-carboxylic acid]
≤ 0.1 µM	≤ 0.1 µM		CC(C)Cc1cn(-c2cccc(C(=O)O)n2)c2cc(Cl)ccc12 [Example 19, 6-[6-Chloro-3-(2-methylpropyl)-1H-indol-1-yl]-2-pyridinecarboxylic acid]
≤ 0.1 µM	≤ 0.1 µM		CC(C)Cc1cn(-c2ccc(C(=O)O)s2)c2cc(Cl)ccc12 [Example 22, 5-[6-Chloro-3-(2-methylpropyl)-1H-indol-1-yl]-2-thiophenecarboxylic acid]
≤ 0.1 µM			CC(C)Cc1cn(-c2nc(C(=O)O)cs2)c2ccccc12 [Example 10, 2-[3-(2-Methylpropyl)-1H-indol-1-yl]-1,3-thiazole-4-carboxylic acid]
≤ 0.1 µM	≤ 0.1 µM		CC(C)Cc1cn(-c2ccc(C(=O)O)o2)c2cc(Cl)ccc12 [Example 18, 5-[6-Chloro-3-(2-methylpropyl)-1H-indol-1-yl]-2-furancarboxylic acid]
≤ 0.1 µM		≥ 2 µM	CC(C)C(=O)c1cn(-c2nc(C(=O)O)cs2)c2cc(Cl)ccc12 [Example 7, 2-[6-Chloro-3-(2-methylpropanoyl)-1H-indol-1-yl]-1,3-thiazole-4-carboxylic acid]
≤ 0.1 µM	≤ 0.1 µM		CC(C)Cc1cn(-c2nc(C(=O)O)cs2)c2cc(F)ccc12 [Example 16, 2-[6-Fluoro-3-(2-methylpropyl)-1H-indol-1-yl]-1,3-thiazole-4-carboxylic acid]
≤ 0.1 µM	≤ 0.1 µM		CC(C)Cc1cn(-c2nc(C(=O)O)co2)c2cc(Cl)ccc12 [Example 5, 2-[6-Chloro-3-(2-methylpropyl)-1H-indol-1-yl]-1,3-oxazole-4-carboxylic acid]
≤ 0.1 µM		≥ 2 µM	CCc1cn(-c2nc(C(=O)O)cs2)c2cc(Cl)ccc12 [Example 20, 2-(6-Chloro-3-ethyl-1H-indol-1-yl)-1,3-thiazole-4-carboxylic acid]
